# Laboratory results: ChEMBL document CHEMBL1143344, “Novel DNA-directed alkylating agents: design, synthesis and potent antitumor effect of phenyl N-mustard-9-anilinoacridine conjugates via a carbamate or carbonate linker” (Bioorg Med Chem, 2009)
# pIC50: −log10 of the molar value. Activity calls are given as the source filed them. No cut-off for these calls is given here.
# How the values were obtained:
# MX1 [1] = test: Cytotoxicity against human MX1 cells after 72 hrs by SRB assay; type: functional, cell-based; conditions: MX1, 72 h
# CCRF-CEM [2] = test: Ratio of IC50 for taxol-resistant human CCRF-CEM cells to IC50 for human CCRF-CEM cells; type: functional
# CCRF-CEM [3] = test: Cytotoxicity against human CCRF-CEM cells after 72 hrs by XTT assay; type: functional, cell-based; conditions: read-out: IC50
# CCRF-CEM [4] = test: Cytotoxicity against vinblastine-resistant human CCRF-CEM cells after 72 hrs by XTT assay; type: functional, cell-based
# HCT-116 = test: Cytotoxicity against human HCT116 cells after 72 hrs by SRB assay; type: functional, cell-based; conditions: HCT-116, 72 h
# CCRF-CEM [5] = test: Ratio of IC50 for vinblastine-resistant human CCRF-CEM cells to IC50 for human CCRF-CEM cells; type: functional
# CCRF-CEM [6] = test: Cytotoxicity against taxol-resistant human CCRF-CEM cells after 72 hrs by XTT assay; type: functional, cell-based
# [7] = Cytotoxicity against human CL1-5 cells after 72 hrs by WST1 assay; type: functional, cell-based; conditions: CL1-5, 72 h
# [8] = Cytotoxicity against human CL1-0 cells after 72 hrs by WST1 assay; type: functional, cell-based; conditions: CL1-0, 72 h
# MCF7 = test: Cytotoxicity against human MCF7 cells after 72 hrs by WST1 assay; type: functional, cell-based; conditions: MCF7, 72 h
# PC-3 = test: Cytotoxicity against human PC3 cells after 72 hrs by WST1 assay; type: functional, cell-based; conditions: PC-3, 72 h
# [9] = Cytotoxicity against human H1299 cells after 72 hrs by WST1 assay; type: functional, cell-based; conditions: NCI-H1299, 72 h
# MX1 [10] = test: Antitumor activity against human MX1 cells xenografted in athymic nude mouse assessed as total tumor remission at 40 mg/kg, iv administered q2d for 5 days measured after 20 days; type: functional, organism-based; parameters: dose 40 mg/kg
compound,measurement,setting,value
COc1ccc(NC(=O)Oc2ccc(N(CCCl)CCCl)cc2)cc1Nc1c2ccccc2nc2c(C)cccc12,pIC50,MX1 [1],6.47
same,Ratio IC50,CCRF-CEM [2],1
same,pIC50,CCRF-CEM [3],6.69
same,pIC50,CCRF-CEM [4],6.96
same,pIC50,HCT-116,6.08
same,Ratio IC50,CCRF-CEM [5],0.54
same,pIC50,CCRF-CEM [6],6.68
CC(C)OC(=O)Nc1cc(COC(=O)Nc2ccc(N(CCCl)CCCl)cc2)cc(Nc2c3ccccc3nc3ccccc23)c1,pIC50,[7],5.18
same,pIC50,MX1 [1],5.95
same,pIC50,[8],5.40
same,Ratio IC50,CCRF-CEM [2],3.4
same,pIC50,MCF7,5.15
same,pIC50,CCRF-CEM [3],6.72
same,pIC50,PC-3,4.80
same,pIC50,CCRF-CEM [4],6.12
same,pIC50,HCT-116,6.52
same,Ratio IC50,CCRF-CEM [5],4
same,pIC50,CCRF-CEM [6],6.19
same,pIC50,[9],5.04
COc1ccc(Nc2c3ccccc3nc3c(C)cccc23)cc1NC(=O)Oc1ccc(N(CCCl)CCCl)cc1,pIC50,[7],5.05
same,pIC50,MX1 [1],6.86
same,pIC50,[8],5.65
same,Ratio IC50,CCRF-CEM [2],1.1
same,pIC50,MCF7,5.46
same,pIC50,CCRF-CEM [3],7.62
same,pIC50,PC-3,5.80
same,pIC50,CCRF-CEM [4],6.72
same,pIC50,HCT-116,6.62
same,Ratio IC50,CCRF-CEM [5],7.9
same,pIC50,CCRF-CEM [6],7.57
same,pIC50,[9],6.45
CC[C@]1(O)C[C@@H]2CN(CCc3c([nH]c4ccccc34)[C@@](C(=O)OC)(c3cc4c(cc3OC)N(C)[C@H]3[C@@](O)(C(=O)OC)[C@H](OC(C)=O)[C@]5(CC)C=CCN6CC[C@]43[C@@H]65)C2)C1 [VINBLASTINE],pIC50,MX1 [1],8.66
same,Ratio IC50,CCRF-CEM [2],106.2
same,pIC50,CCRF-CEM [3],9.14
same,pIC50,CCRF-CEM [4],6.30
same,pIC50,HCT-116,8.96
same,Ratio IC50,CCRF-CEM [5],679.5
same,pIC50,CCRF-CEM [6],7.11
Nc1cc(CO)cc(Nc2c3ccccc3nc3ccccc23)c1,pIC50,MX1 [1],8.46
same,Ratio IC50,CCRF-CEM [2],0.8
same,pIC50,CCRF-CEM [4],5.80
same,Ratio IC50,CCRF-CEM [5],2.7
same,pIC50,CCRF-CEM [6],6.22
Cc1cccc2c(Nc3cc(CO)cc(NC(=O)Oc4ccc(N(CCCl)CCCl)cc4)c3)c3ccccc3nc12,pIC50,[7],4.90
same,pIC50,MX1 [1],7.08
same,pIC50,[8],5.73
same,Ratio IC50,CCRF-CEM [2],1.4
same,pIC50,MCF7,5.05
same,pIC50,CCRF-CEM [3],7.17
same,pIC50,PC-3,5.22
same,pIC50,CCRF-CEM [4],6.90
same,pIC50,HCT-116,6.36
same,Ratio IC50,CCRF-CEM [5],1.9
same,Activity,MX1 [10],Active
same,pIC50,CCRF-CEM [6],7.01
same,pIC50,[9],6.34
COc1ccc(Nc2c3ccccc3nc3ccccc23)cc1NC(=O)Oc1ccc(N(CCCl)CCCl)cc1,pIC50,MX1 [1],6.74
same,Ratio IC50,CCRF-CEM [2],1.9
same,pIC50,CCRF-CEM [3],7.07
same,pIC50,CCRF-CEM [4],6.92
same,pIC50,HCT-116,6.73
same,Ratio IC50,CCRF-CEM [5],1.4
same,pIC50,CCRF-CEM [6],6.80
CCOC(=O)Nc1cc(COC(=O)Nc2ccc(N(CCCl)CCCl)cc2)cc(Nc2c3ccccc3nc3ccccc23)c1,pIC50,MX1 [1],6.22
same,pIC50,CCRF-CEM [3],7.07
COc1ccc(NC(=O)Oc2ccc(N(CCCl)CCCl)cc2)cc1Nc1c2ccccc2nc2ccccc12,pIC50,MX1 [1],5.81
same,Ratio IC50,CCRF-CEM [2],1.08
same,pIC50,CCRF-CEM [3],6.27
same,pIC50,CCRF-CEM [4],6.60
same,pIC50,HCT-116,6.15
same,pIC50,CCRF-CEM [6],6.23
